From patent US12291502B2, “Topoisomerase II-alpha inhibitors and methods of treating cancer using the same” (The Regents of the University of Colorado, priority 2019, dated 2025)
Like-named read-outs stand apart in the source and are kept apart here.

How the values were obtained:
SW620 tumor organoids = test: Tumor organoid cytotoxicity / 3D cell viability (CellTox Green); format: cell-based
Experimental: Tumor organoid cytotoxicity. Fluorescence image-based method: The CellTox™ Green assay (Promega, Madison, WI, USA) was used with 3D tumor organoid to measure spheroid death. 0.1% CellTox™ Green was included in each well at the time of analogs dosing. 10% lysis solution was used as a cell death control. Fluorescence was measured at various time points with 465-510 nm excitation and 520-530 nm emission. Luminescence plate reader method: A 1:1 ratio of CellTiter-Glo™ 3D reagent (Promega) was added to 3D tumor organoid and the plate was shaken at 400 rpm for 30 min before luminescence was read with a PerkinElmer Envision plate reader.
Finally, SW620 tumor organoid cytotoxicity experiments were conducted using the CellTox Green assay, a fluorescence image-based method, to determine whether the inhibition of TCF transcription and effects on EMT are not the result of cytotoxicity. […] All of the analogs tested display IC50 dose response >30 μM and were higher compared to the IC50 values obtained during the downregulation of TCF transcription activity, and the EC50 values obtained for EMT modulation. Thus, the biological effects on TCF-transcription and EMT are not a result of tumor organoid cell death.
(§1) Tumor organoid cytotoxicity. SW620 tumor organoids were grown as previously outlined. CellTox™ Green-Express Cytotoxicity Assay (Promega, WI) solution was prepared per manufacturer's protocol. Briefly, organoids were treated for 72 h with CellTox™ Green Express (0.5×) reagent and various doses of TOP2A inhibitors over a range of 0-to-40 μM. Organoids were then imaged using the Opera Phenix HCS system (PerkinElmer, MA). CellTox™ Green Express was excited at 488 nm and emission was detected at 500-550 nm. Mean intensity of the whole well was utilized for calculating cytotoxicity with Lysis Buffer (Promega, WI, 0.025×) as the 0% viability control and 0.4% DMSO as the 100% viability control. Intensity values were normalized to these controls using GraphPad Prism 7.0 (GraphPad, CA).
as §1, with “CellTox™-Green-Express” for “CellTox™ Green-Express”, “(GraphPad.” for “(GraphPad,”

[1] = tested on: vimentin promoter activity (VimPro-GFP) in SW620 cells; test: VimPro-GFP EMT reporter assay
Experimental: VimPro-GFP and EcadPro-mCherry reporter assays. VimPiro-GFP: SW620 cells were first transduced with NucLight Red virus (Essen BioSciences) and selected with Zeocin at 200 μg/mL, and then transduced with pCDH-VimPro-GFP-EF1-puro virus and selected with puromycin at 4 μg/mL. The dual fluorescently labeled cells were plated and treated in 3D tumor organoid as described. Tumor organoid images were recorded every 2 hours over a 72 hours period using an incucyte ZOOM content imaging system (Essen BioSciences) or PerkinElmer Phenix imager (PerkinElmer).
Analogs were also assessed for their ability to modulate or reverse EMT using VimPro-GFP and EcadPro-RFP SW620 reporter cells cultured as tumor organoids, determining EC50 dose responses over 72 hours (Table 2).
VimPro-GFP and EcadPro-RFP reporter assays. Stable VimPro-GFP or EcadPro-RFP SW620 reporter cells were generated using pCDH-VimPro-GFP-EF1-puro virus or pCDH-EcadPro-mCherry-EF1-puro virus as previously reported. […] Transduced cells were selected with puromycin at 2 μg/mL. The stable fluorescent labeled reporter cells were then used to generate tumor organoids as described. Tumor organoids were then treated with TOP2A inhibitors at 10 μM for an additional 72 h. Following treatment, tumor organoids were stained with 16 μM of Hoechst 33342 for 1 h, which functions as a nuclear stain for imaging segmentation. Images were taken with a 5× air objective. Z stacks were set at 20 μm apart for a total of 7 layers. Imaging analysis was performed using an Opera Phenix high content screening (HCS) system and Harmony high-content imaging and analysis software interface (PerkinElmer, MA). Nuclei were identified with Hoechst 33342 stain within each layer, and cells were found with either GFP or mCherry channel. The intensities of each fluorescence channel within the cells were calculated and thresholds were set based on the background intensities. Percentages of GFP or mCherry positive cells were calculated and normalized to the DMSO treated group.
VimPro-GFP and EcadPro-RFP reporter assays. Stable VimPro-GFP or EcadPro-RFP SW620 reporter cells were generated using pCDH-VimPro-GFP-EF1-puro virus or pCDH-EcadPro-mCherry-EF1-puro virus as previously reported. […] Transduced cells were selected with puromycin at 2 μg/mL. The stable fluorescent labeled reporter cells were then used to generate tumor organoids as described. Tumor organoids were then treated with TOP2A inhibitors at 10 μM for an additional 72 h. Following treatment, tumor organoids were stained with 16 μM of Hoechst 33342 for 1 h, which functions as a nuclear stain for imaging segmentation. Images were taken with a 5× air objective.

[2] = read-out: % Vimentin downregulation EC50, Table 2, SW620 tumor organoids, 72 hours
[3] = Homo sapiens, SW-620, Table 2, 72 hours
[4] = Homo sapiens, SW-620, 72 h, read-out: % Vimentin downregulation EC50 (μM)

CC(=O)Nc1ccc(-c2ccnc3c(O)c(NC(C)=O)ccc23)cc1 [Analog 35]
IC50 (SW620 tumor organoids; Table 2, 72 hours): > 30 µM
EC50 [1, 2]: 9.5 µM

CC(C)(C)C(=O)Nc1ccc2c(-c3ccccc3)ccnc2c1O [Analog 39]
IC50 (SW620 tumor organoids; Table 2, 72 hours): > 30 µM
EC50 [1, 2]: 4.7 µM

O=C(CCN1CCOCC1)Nc1ccc2c(-c3cc(F)ccc3O)ccnc2c1O [Analog 42]
IC50 (SW620 tumor organoids; [3]): > 30 µM
EC50 [1, 4]: 13.2 µM

CC(=O)Nc1ccc2c(-c3ccoc3)ccnc2c1O [Analog 56]
IC50 (SW620 tumor organoids; [3]): > 30 µM
EC50 [1, 4]: 25.7 µM

CC(=O)Nc1ccc2c(-c3cc(F)ccc3O)ccnc2c1O [Analog 7]
IC50 (SW620 tumor organoids; [3]): > 30 µM
EC50 [1, 4]: 10.8 µM
vimentin downregulation (VimPro-GFP), in words ([1]; SW620 tumor organoids): dose-dependent downregulation of vimentin
